Experiments:
[1] = molecular target: HDAC8 (Homo sapiens (Human), UniProt Q9BY41); assay: HDAC inhibition assay, electrophoretic mobility shift (Nanosyn); conditions: read-out: HDAC Biochemical IC50 HDAC8
Protocol: (§1) This example describes in vitro inhibition properties of exemplary HDAC11 inhibitors for various HDACs. HDAC inhibition assays were performed using an electrophoretic mobility shift assay at Nanosyn, Inc. (Santa Clara, Calif.). Full length human recombinant HDAC proteins were expressed in the baculoviral system and purified by affinity chromatography. A human recombinant HDAC3 was co-expressed with nuclear receptor corepressor (Ncor2). The following peptide substrates were used: FAM-RHKK(Ac)-NH2 for HDAC3, HDAC6 and HDAC8; FITC-H3K27(Ac)-NH2 for HDAC1, HDAC2 and HDAC10; FAM-RHKK(tri-fluor-Ac)-NH2 for HDAC4, HDAC5, HDAC7, HDAC9 and HDAC11. Reactions consisting of compound, enzyme, and substrate were performed in reaction buffer (comprised of 100 mM HEPES, pH7.5, 25 mM KCl, 0.1% bovine serum albumin, 0.01% Triton X-100) at 25° C. and quenched by the addition of termination buffer (100 mM HEPES, pH7.5, 0.01% Triton X-100, 0.05% SDS). The fluorescence intensity of the electrophoretically separated de-acetylated product and substrate peptide were measured and analyzed using the LabChip® 3000 microfluidic electrophoresis instrument (Perkin Elmer/Caliper Life Sciences). The IC50 values of inhibitors were determined by fitting the %-inhibition curves with 4 parameter dose-response model using XLfit 4 software (IDBS).

[2] = molecular target: HDAC1 (Homo sapiens (Human), UniProt Q13547); assay: as above; conditions: read-out: HDAC Biochemical IC50 HDAC1
HDAC1, sequence (Q13547 whole entry): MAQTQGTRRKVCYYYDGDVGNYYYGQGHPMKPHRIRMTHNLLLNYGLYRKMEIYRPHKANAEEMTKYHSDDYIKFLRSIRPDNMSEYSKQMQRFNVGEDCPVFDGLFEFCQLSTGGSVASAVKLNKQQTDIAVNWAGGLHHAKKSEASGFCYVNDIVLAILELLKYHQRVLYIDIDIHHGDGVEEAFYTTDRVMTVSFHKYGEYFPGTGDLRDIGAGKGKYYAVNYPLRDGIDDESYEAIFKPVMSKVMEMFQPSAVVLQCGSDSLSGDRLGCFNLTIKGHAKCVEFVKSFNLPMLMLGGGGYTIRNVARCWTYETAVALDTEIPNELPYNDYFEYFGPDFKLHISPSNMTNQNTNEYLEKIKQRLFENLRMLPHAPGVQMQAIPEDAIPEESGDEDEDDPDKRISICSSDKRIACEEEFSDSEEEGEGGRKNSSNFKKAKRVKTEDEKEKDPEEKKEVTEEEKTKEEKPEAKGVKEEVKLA
Protocol: as §1

[3] = molecular target: HDAC9 (Homo sapiens (Human), UniProt Q9UKV0); assay: as above; conditions: read-out: HDAC Biochemical IC50 HDAC9
Protocol: as §1

[4] = molecular target: HDAC5 (Homo sapiens (Human), UniProt Q9UQL6); assay: as above; conditions: read-out: HDAC Biochemical IC50 HDAC5
HDAC5, sequence (Q9UQL6 whole entry): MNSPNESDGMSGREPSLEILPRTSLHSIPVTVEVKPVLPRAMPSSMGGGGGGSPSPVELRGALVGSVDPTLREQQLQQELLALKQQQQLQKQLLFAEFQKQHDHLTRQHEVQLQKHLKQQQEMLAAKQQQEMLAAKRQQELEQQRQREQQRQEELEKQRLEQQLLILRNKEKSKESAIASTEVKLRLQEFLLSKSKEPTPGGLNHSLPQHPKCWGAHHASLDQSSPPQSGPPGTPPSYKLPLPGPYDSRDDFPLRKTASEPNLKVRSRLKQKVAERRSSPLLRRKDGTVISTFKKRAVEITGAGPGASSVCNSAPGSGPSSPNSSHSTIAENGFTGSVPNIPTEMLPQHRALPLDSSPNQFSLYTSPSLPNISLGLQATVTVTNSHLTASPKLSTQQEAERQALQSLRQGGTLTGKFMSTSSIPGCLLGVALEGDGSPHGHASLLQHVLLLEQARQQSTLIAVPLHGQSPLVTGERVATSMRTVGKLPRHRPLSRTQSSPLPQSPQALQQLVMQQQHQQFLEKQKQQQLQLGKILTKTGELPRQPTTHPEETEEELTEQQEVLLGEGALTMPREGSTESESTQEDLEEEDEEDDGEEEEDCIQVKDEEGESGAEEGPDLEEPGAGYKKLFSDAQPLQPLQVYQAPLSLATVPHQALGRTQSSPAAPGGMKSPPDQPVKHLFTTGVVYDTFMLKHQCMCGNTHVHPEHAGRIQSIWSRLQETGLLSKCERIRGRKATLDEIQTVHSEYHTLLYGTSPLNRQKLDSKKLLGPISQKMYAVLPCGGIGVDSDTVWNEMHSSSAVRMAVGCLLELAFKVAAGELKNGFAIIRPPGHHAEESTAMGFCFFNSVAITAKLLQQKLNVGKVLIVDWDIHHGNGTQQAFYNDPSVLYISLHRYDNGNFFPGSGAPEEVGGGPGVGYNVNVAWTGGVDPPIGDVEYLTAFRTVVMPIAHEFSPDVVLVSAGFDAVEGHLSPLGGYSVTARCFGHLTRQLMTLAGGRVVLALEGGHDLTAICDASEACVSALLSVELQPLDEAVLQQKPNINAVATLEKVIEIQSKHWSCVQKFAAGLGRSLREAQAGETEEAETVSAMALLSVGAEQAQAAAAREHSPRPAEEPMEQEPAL
Protocol: as §1

[5] = molecular target: HDAC4 (Homo sapiens (Human), UniProt P56524); assay: as above; conditions: read-out: HDAC Biochemical IC50 HDAC4
Protocol: as §1

[6] = molecular target: HDAC6 (Homo sapiens (Human), UniProt Q9UBN7); assay: as above; conditions: read-out: HDAC Biochemical IC50 HDAC6
HDAC6, sequence (Q9UBN7 whole entry): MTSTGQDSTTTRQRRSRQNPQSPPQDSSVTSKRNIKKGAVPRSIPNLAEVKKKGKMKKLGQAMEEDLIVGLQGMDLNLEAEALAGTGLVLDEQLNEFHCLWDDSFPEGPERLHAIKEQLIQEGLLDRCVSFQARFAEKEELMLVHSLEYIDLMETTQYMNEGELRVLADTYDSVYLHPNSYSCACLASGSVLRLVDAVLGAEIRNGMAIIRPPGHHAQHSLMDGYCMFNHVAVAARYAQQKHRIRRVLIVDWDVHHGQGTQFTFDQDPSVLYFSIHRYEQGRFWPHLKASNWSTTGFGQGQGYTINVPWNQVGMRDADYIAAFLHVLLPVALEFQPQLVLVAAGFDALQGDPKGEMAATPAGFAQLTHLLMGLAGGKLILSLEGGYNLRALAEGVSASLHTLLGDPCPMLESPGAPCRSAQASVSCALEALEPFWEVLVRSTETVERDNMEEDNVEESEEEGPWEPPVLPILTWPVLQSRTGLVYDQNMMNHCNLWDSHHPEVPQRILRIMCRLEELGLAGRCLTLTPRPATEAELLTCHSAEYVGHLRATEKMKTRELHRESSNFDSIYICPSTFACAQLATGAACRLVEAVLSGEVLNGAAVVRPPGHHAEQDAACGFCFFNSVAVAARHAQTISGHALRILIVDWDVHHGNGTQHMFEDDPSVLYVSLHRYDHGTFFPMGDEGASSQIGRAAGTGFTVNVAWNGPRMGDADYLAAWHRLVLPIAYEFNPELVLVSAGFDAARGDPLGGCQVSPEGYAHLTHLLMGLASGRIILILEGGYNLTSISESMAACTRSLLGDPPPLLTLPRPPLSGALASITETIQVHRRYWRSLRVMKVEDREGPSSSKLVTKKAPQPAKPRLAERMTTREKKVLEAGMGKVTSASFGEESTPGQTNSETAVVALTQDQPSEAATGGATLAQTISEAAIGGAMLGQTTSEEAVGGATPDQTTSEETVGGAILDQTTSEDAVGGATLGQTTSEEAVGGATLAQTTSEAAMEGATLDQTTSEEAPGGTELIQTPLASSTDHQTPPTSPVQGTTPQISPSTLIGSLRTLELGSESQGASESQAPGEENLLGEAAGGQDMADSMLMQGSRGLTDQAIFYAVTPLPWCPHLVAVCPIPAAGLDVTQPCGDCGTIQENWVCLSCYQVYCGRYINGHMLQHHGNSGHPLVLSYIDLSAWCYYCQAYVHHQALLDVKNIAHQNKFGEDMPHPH
Protocol: as §1

[7] = molecular target: HDAC2 (Homo sapiens (Human), UniProt Q92769); assay: as above; conditions: read-out: HDAC Biochemical IC50 HDAC2
Protocol: as §1

[8] = molecular target: HDAC3 co-expressed with nuclear receptor corepressor (Ncor2) (Homo sapiens (Human), UniProt O15379); assay: as above; conditions: read-out: HDAC Biochemical IC50 HDAC3
HDAC3 co-expressed with nuclear receptor corepressor (Ncor2), sequence (O15379 whole entry): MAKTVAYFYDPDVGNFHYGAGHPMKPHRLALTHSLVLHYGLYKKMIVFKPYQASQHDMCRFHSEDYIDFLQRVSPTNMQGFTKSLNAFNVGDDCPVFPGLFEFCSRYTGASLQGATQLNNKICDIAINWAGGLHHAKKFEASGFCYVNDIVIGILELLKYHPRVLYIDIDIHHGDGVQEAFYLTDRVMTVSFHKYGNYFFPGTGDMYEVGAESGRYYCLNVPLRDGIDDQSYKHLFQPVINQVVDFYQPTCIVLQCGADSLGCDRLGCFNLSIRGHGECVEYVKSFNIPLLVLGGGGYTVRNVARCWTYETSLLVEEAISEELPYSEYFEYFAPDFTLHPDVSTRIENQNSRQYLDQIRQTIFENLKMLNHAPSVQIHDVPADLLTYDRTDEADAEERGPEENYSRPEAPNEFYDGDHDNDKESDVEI
HDAC3 co-expressed with nuclear receptor corepressor (Ncor2), sequence (Q9Y618 395-489 partner): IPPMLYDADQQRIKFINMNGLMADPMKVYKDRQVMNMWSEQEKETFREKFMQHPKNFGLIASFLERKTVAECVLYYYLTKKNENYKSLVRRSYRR
Protocol: as §1

[9] = molecular target: HDAC10 (Homo sapiens (Human), UniProt Q969S8); assay: as above; conditions: read-out: HDAC Biochemical IC50 HDAC10
HDAC10, sequence (Q969S8 whole entry): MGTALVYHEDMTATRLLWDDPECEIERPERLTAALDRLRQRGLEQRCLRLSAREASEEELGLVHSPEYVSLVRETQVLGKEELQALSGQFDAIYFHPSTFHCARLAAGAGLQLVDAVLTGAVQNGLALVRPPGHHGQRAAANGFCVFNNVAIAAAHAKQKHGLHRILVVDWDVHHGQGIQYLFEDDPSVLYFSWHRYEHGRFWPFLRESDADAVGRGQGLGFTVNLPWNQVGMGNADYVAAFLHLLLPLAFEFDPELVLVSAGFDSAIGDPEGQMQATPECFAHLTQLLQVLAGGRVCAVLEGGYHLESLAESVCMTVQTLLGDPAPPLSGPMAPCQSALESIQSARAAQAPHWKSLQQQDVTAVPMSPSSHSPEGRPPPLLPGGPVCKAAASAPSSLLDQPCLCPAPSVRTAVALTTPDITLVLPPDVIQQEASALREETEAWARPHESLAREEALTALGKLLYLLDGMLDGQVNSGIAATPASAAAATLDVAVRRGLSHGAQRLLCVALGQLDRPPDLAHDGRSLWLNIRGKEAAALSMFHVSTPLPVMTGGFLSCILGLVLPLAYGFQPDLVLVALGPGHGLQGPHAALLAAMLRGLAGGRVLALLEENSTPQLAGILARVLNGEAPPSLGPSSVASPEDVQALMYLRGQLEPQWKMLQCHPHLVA
Protocol: as §1

[10] = molecular target: HDAC11 (Homo sapiens (Human), UniProt Q96DB2); assay: as above; assay type: biochemical; conditions: for selectivity over HDACs 1-10: HDAC11 versus HDACs 1-10; for IC50: read-out: HDAC Biochemical IC50 HDAC11
HDAC11, sequence (Q96DB2 whole entry): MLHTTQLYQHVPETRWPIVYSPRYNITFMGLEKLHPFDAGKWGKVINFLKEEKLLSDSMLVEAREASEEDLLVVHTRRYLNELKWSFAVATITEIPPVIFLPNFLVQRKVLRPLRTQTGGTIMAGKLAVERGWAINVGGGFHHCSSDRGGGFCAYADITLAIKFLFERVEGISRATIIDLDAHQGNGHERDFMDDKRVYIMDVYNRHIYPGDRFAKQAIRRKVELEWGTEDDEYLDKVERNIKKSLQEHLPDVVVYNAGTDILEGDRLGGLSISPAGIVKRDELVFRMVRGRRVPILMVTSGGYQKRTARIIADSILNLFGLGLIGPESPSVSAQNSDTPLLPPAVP
Protocol: as §1

[11] = test system: primary CAFs from human lung cancer; assay: Co-culture assay with cancer cells and cancer associated fibroblasts; assay type: cell-based; conditions: 1:1 co-culture with H1650
Protocol: (§2) The effects of selective HDAC11 inhibition on cancer cells and cancer associated fibroblasts (CAFs) were determined in a co-culture assay. The cells were first trypsinized and collected in serum containing medium and were further incubated in same media at 37° C. for 15-20 min for recovery. The cells were resuspended in serum free media at 1×10^6 cells/ml density and stained with 10 uM of cytotracker green (Cancer associated fibroblasts) or cytotracker red dye (H1650 cells) (Life Technologies Inc) at 37° C. for 90 min. The stained cells were washed twice with serum free medium to remove excess dye at 1500 rpm for 5 min. The cytotracker green stained CAFs were mixed with cytotracker red stained H1650 cells in 1:1 ratio and grown in 96-well tissue culture plate overnight. The HDAC11 inhibitors were then added to the mixed adhered cells (CAFs+H1650) at appropriate concentrations. The images were taken on Day 0 and after every 24 hours using EVOS FL microscope system and EVOS software (Life Technologies Inc).

[12] = test system: H1650 cells co-cultured with primary CAFs; assay: as above; assay type: cell-based; conditions: 1:1 co-culture
Protocol: as §2

[13] = molecular target: Full length human recombinant HDAC11 (Homo sapiens (Human), UniProt Q96DB2); assay: Enzymatic HDAC11 assay, electrophoretic mobility shift; assay type: biochemical; conditions: substrate FAM-RHKK(tri-fluor-Ac)-NH2, read-out: HDAC11 IC50 Range
Full length human recombinant HDAC11, sequence (Q96DB2 whole entry): as above
Summary of the method: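 Baculovirus-expressed enzyme (10 nM) with 2 μM FAM-RHKK(tri-fluor-Ac)-NH2 in 100 mM HEPES pH 7.5, 25 mM KCl, 0.1% BSA, 0.01% Triton X-100, 1% DMSO at 25 °C. Substrate and product separated by microfluidic electrophoresis; inhibition from product/(substrate+product) ratio. IC50 by 4-parameter fit over 12 concentrations.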

HDAC8, sequence (Q9BY41 whole entry): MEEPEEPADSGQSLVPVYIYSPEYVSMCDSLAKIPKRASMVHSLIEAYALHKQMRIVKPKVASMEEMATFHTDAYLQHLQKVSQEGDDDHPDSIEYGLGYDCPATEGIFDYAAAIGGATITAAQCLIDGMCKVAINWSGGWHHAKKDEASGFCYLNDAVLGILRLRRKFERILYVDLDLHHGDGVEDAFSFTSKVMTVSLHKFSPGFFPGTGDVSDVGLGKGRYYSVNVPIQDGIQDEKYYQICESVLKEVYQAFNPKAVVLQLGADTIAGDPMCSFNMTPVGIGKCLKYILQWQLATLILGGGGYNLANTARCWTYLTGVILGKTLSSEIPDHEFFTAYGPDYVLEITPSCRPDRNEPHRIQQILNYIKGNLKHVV

| IC50 [13] | SMILES | IC50 [1] | IC50 [2] | IC50 [3] | IC50 [4] | IC50 [5] | IC50 [6] | IC50 [7] | IC50 [8] | IC50 [9] | selectivity over HDACs 1-10 [10] | IC50 [10] | effects on CAFs [11] | growth of H1650 cells co-cultured with primary CAFs [12] |
| --- | --- | --- | --- | --- | --- | --- | --- | --- | --- | --- | --- | --- | --- | --- |
| – | O=C(NO)c1cccc(Nc2nc3cc(Cl)c(Cl)cc3o2)c1 [HDTK010, 3-((5,6-dichlorobenzo[d]oxazol-2-yl)amino)-N-hydroxybenzamide] | 0.5 to 1 µM | > 10 µM | > 10 µM | > 10 µM | > 10 µM | 0.5 to 1 µM | > 10 µM | > 10 µM | > 10 µM | > 200 fold | 0.001 to 0.005 µM | – | – |
| < 0.5 µM | O=C(NO)c1cccc2c1C[C@]1(CCN(Cc3ccc(Cl)c(C(F)(F)F)c3)C1=O)C2 [HDTK054, (S)-1′-(4-chloro-3-(trifluoromethyl)benzyl)-N-hydroxy-2′-oxo-1,3-dihydrospiro[indene-2,3′-pyrrolidine]-4-carboxamide] | 5 to 10 µM | > 10 µM | > 10 µM | > 10 µM | > 10 µM | > 10 µM | > 10 µM | > 10 µM | > 10 µM | > 200 fold | 0.01 to 0.05 µM | minimal effects | inhibit the growth |
